From the supplement of paper PMC10307832

How the values were obtained:
Assay in all cases: relative viability (nuclei count vs DMSO), 5 days (fraction); higher = more cells survive
[1] = compound: C1=CC=C2C(=C1)N=C(S2)C(C#N)C3=NC(=NC=C3)NCCC4=CN=CC=C4 + N=C(N)NC(=N)NCCc1ccccc1 [Phenformin] (partner 250 µM)
In short: (§1)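 Relative viability equals treated-well nuclei counts divided by vehicle-well nuclei counts. Counts came from 4× images of lung cancer cell lines grown in 1536-well plates for 5 days after pin-tool dosing on the day after seeding. Dosing used one drug alone or a fixed anchor-drug dose plus five library-drug doses (not always all listed) in √10 steps, and values are medians of duplicate plates.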

[2] = compound: C1=CC=C2C(=C1)N=C(S2)C(C#N)C3=NC(=NC=C3)NCCC4=CN=CC=C4 + Nc1ncn([C@H]2C[C@H](O)[C@@H](CO)O2)c(=O)n1 [Decitabine] (partner 2 µM)
In short: as §1

[3] = compound: C1=CC=C2C(=C1)N=C(S2)C(C#N)C3=NC(=NC=C3)NCCC4=CN=CC=C4 + CCNC(=O)c1noc(-c2cc(C(C)C)c(O)cc2O)c1-c1ccc(CN2CCOCC2)cc1 [Luminespib] (partner 0.01 µM)
In short: as §1

CUDC-101 + Pictilisib = compound: C#Cc1cccc(Nc2ncnc3cc(OC)c(OCCCCCCC(=O)NO)cc23)c1 [CUDC-101] + CS(=O)(=O)N1CCN(Cc2cc3nc(-c4cccc5[nH]ncc45)nc(N4CCOCC4)c3s2)CC1 [Pictilisib] (partner 1 µM)
In short: as §1

Cell Line: A-427
- relative viability ([1]; first compound 0.005 µM): 0.252
- relative viability ([1]; first compound 0.01581 µM): 0.34
- relative viability ([1]; first compound 0.05 µM): 0.367
- relative viability ([1]; first compound 0.1581 µM): 0.322
- relative viability ([1]; first compound 0.5 µM): 0.288
- relative viability ([2]; first compound 0.005 µM): 0.599
- relative viability ([2]; first compound 0.01581 µM): 0.495
- relative viability ([2]; first compound 0.05 µM): 0.568
- relative viability ([2]; first compound 0.1581 µM): 0.555
- relative viability ([2]; first compound 0.5 µM): 0.574
- relative viability ([3]; first compound 0.005 µM): 0.784
- relative viability ([3]; first compound 0.01581 µM): 1
- relative viability ([3]; first compound 0.05 µM): 0.861
- relative viability ([3]; first compound 0.1581 µM): 1.18
- relative viability ([3]; first compound 0.5 µM): 0.965
- relative viability (CUDC-101 + Pictilisib; first compound 0.01 µM): 0.804
- relative viability (CUDC-101 + Pictilisib; first compound 0.03162 µM): 0.656
- relative viability (CUDC-101 + Pictilisib; first compound 0.1 µM): 0.655
- relative viability (CUDC-101 + Pictilisib; first compound 0.3162 µM): 0.698
- relative viability (CUDC-101 + Pictilisib; first compound 1 µM): 0.614

Cell Line: SW 900
- relative viability ([1]; first compound 0.005 µM): 0.418
- relative viability ([1]; first compound 0.01581 µM): 0.704
- relative viability ([1]; first compound 0.05 µM): 0.627
- relative viability ([1]; first compound 0.1581 µM): 1.02
- relative viability ([1]; first compound 0.5 µM): 0.338
- relative viability ([2]; first compound 0.005 µM): 0.393
- relative viability ([2]; first compound 0.01581 µM): 0.342
- relative viability ([2]; first compound 0.05 µM): 0.401
- relative viability ([2]; first compound 0.1581 µM): 0.557
- relative viability ([2]; first compound 0.5 µM): 0.391
- relative viability ([3]; first compound 0.005 µM): 0.164
- relative viability ([3]; first compound 0.01581 µM): 0.205
- relative viability ([3]; first compound 0.05 µM): 0.175
- relative viability ([3]; first compound 0.1581 µM): 0.197
- relative viability ([3]; first compound 0.5 µM): 0.179

Cell Line: COR-L 105
- relative viability ([1]; first compound 0.005 µM): 0.322
- relative viability ([1]; first compound 0.01581 µM): 0.487
- relative viability ([1]; first compound 0.05 µM): 0.582
- relative viability ([1]; first compound 0.1581 µM): 0.525
- relative viability ([1]; first compound 0.5 µM): 0.411
- relative viability ([2]; first compound 0.005 µM): 0.597
- relative viability ([2]; first compound 0.01581 µM): 0.628
- relative viability ([2]; first compound 0.05 µM): 0.638
- relative viability ([2]; first compound 0.1581 µM): 0.637
- relative viability ([2]; first compound 0.5 µM): 0.642
- relative viability ([3]; first compound 0.005 µM): 0.782
- relative viability ([3]; first compound 0.01581 µM): 0.848
- relative viability ([3]; first compound 0.05 µM): 0.85
- relative viability ([3]; first compound 0.1581 µM): 0.826
- relative viability ([3]; first compound 0.5 µM): 0.657
- relative viability (CUDC-101 + Pictilisib; first compound 0.01 µM): 0.466
- relative viability (CUDC-101 + Pictilisib; first compound 0.03162 µM): 0.376
- relative viability (CUDC-101 + Pictilisib; first compound 0.1 µM): 0.352
- relative viability (CUDC-101 + Pictilisib; first compound 0.3162 µM): 0.313
- relative viability (CUDC-101 + Pictilisib; first compound 1 µM): 0.189

Cell Line: LOU-NH91
- relative viability ([1]; first compound 0.005 µM): 0.677
- relative viability ([1]; first compound 0.01581 µM): 0.702
- relative viability ([1]; first compound 0.05 µM): 0.597
- relative viability ([1]; first compound 0.1581 µM): 0.687
- relative viability ([1]; first compound 0.5 µM): 0.685
- relative viability ([2]; first compound 0.005 µM): 0.85
- relative viability ([2]; first compound 0.01581 µM): 0.822
- relative viability ([2]; first compound 0.05 µM): 0.765
- relative viability ([2]; first compound 0.1581 µM): 0.818
- relative viability ([2]; first compound 0.5 µM): 0.8
- relative viability ([3]; first compound 0.005 µM): 0.274
- relative viability ([3]; first compound 0.01581 µM): 0.34
- relative viability ([3]; first compound 0.05 µM): 0.336
- relative viability ([3]; first compound 0.1581 µM): 0.333
- relative viability ([3]; first compound 0.5 µM): 0.43
- relative viability (CUDC-101 + Pictilisib; first compound 0.01 µM): 0.578
- relative viability (CUDC-101 + Pictilisib; first compound 0.03162 µM): 0.523
- relative viability (CUDC-101 + Pictilisib; first compound 0.1 µM): 0.564
- relative viability (CUDC-101 + Pictilisib; first compound 0.3162 µM): 0.473
- relative viability (CUDC-101 + Pictilisib; first compound 1 µM): 0.433

Cell Line: COR-L23
- relative viability ([1]; first compound 0.005 µM): 0.355
- relative viability ([1]; first compound 0.01581 µM): 0.49
- relative viability ([1]; first compound 0.05 µM): 0.467
- relative viability ([1]; first compound 0.1581 µM): 0.465
- relative viability ([1]; first compound 0.5 µM): 0.377
- relative viability ([2]; first compound 0.005 µM): 0.439
- relative viability ([2]; first compound 0.01581 µM): 0.45
- relative viability ([2]; first compound 0.05 µM): 0.415
- relative viability ([2]; first compound 0.1581 µM): 0.472
- relative viability ([2]; first compound 0.5 µM): 0.424
- relative viability ([3]; first compound 0.005 µM): 0.404
- relative viability ([3]; first compound 0.01581 µM): 0.825
- relative viability ([3]; first compound 0.05 µM): 0.727
- relative viability ([3]; first compound 0.1581 µM): 1.06
- relative viability ([3]; first compound 0.5 µM): 0.614
- relative viability (CUDC-101 + Pictilisib; first compound 0.01 µM): 0.846
- relative viability (CUDC-101 + Pictilisib; first compound 0.03162 µM): 0.861
- relative viability (CUDC-101 + Pictilisib; first compound 0.1 µM): 0.751
- relative viability (CUDC-101 + Pictilisib; first compound 0.3162 µM): 0.68
- relative viability (CUDC-101 + Pictilisib; first compound 1 µM): 0.23

Cell Line: HCC-15
- relative viability ([1]; first compound 0.005 µM): 0.427
- relative viability ([1]; first compound 0.01581 µM): 0.437
- relative viability ([1]; first compound 0.05 µM): 0.455
- relative viability ([1]; first compound 0.1581 µM): 0.579
- relative viability ([1]; first compound 0.5 µM): 0.401
- relative viability ([2]; first compound 0.005 µM): 0.568
- relative viability ([2]; first compound 0.01581 µM): 0.608
- relative viability ([2]; first compound 0.05 µM): 0.644
- relative viability ([2]; first compound 0.1581 µM): 0.66
- relative viability ([2]; first compound 0.5 µM): 0.564
- relative viability ([3]; first compound 0.005 µM): 0.478
- relative viability ([3]; first compound 0.01581 µM): 0.255
- relative viability ([3]; first compound 0.05 µM): 0.237
- relative viability ([3]; first compound 0.1581 µM): 0.354
- relative viability ([3]; first compound 0.5 µM): 0.27
- relative viability (CUDC-101 + Pictilisib; first compound 0.01 µM): 0.683
- relative viability (CUDC-101 + Pictilisib; first compound 0.03162 µM): 0.774
- relative viability (CUDC-101 + Pictilisib; first compound 0.1 µM): 0.713
- relative viability (CUDC-101 + Pictilisib; first compound 0.3162 µM): 0.79
- relative viability (CUDC-101 + Pictilisib; first compound 1 µM): 0.569

Cell Line: LCLC-103H
- relative viability ([1]; first compound 0.005 µM): 0.289
- relative viability ([1]; first compound 0.01581 µM): 0.336
- relative viability ([1]; first compound 0.05 µM): 0.286
- relative viability ([1]; first compound 0.1581 µM): 0.369
- relative viability ([1]; first compound 0.5 µM): 0.298
- relative viability ([2]; first compound 0.005 µM): 0.723
- relative viability ([2]; first compound 0.01581 µM): 0.731
- relative viability ([2]; first compound 0.05 µM): 0.69
- relative viability ([2]; first compound 0.1581 µM): 0.762
- relative viability ([2]; first compound 0.5 µM): 0.751
- relative viability ([3]; first compound 0.005 µM): 0.773
- relative viability ([3]; first compound 0.01581 µM): 0.854
- relative viability ([3]; first compound 0.05 µM): 0.905
- relative viability ([3]; first compound 0.1581 µM): 0.944
- relative viability ([3]; first compound 0.5 µM): 0.96
- relative viability (CUDC-101 + Pictilisib; first compound 0.01 µM): 0.586
- relative viability (CUDC-101 + Pictilisib; first compound 0.03162 µM): 0.574
- relative viability (CUDC-101 + Pictilisib; first compound 0.1 µM): 0.614
- relative viability (CUDC-101 + Pictilisib; first compound 0.3162 µM): 0.501
- relative viability (CUDC-101 + Pictilisib; first compound 1 µM): 0.492

Cell Line: HARA
- relative viability ([1]; first compound 0.005 µM): 0.474
- relative viability ([1]; first compound 0.01581 µM): 0.484
- relative viability ([1]; first compound 0.05 µM): 0.488
- relative viability ([1]; first compound 0.1581 µM): 0.46
- relative viability ([1]; first compound 0.5 µM): 0.465
- relative viability ([2]; first compound 0.005 µM): 0.7
- relative viability ([2]; first compound 0.01581 µM): 0.574
- relative viability ([2]; first compound 0.05 µM): 0.634
- relative viability ([2]; first compound 0.1581 µM): 0.538
- relative viability ([2]; first compound 0.5 µM): 0.584
- relative viability ([3]; first compound 0.005 µM): 0.527
- relative viability ([3]; first compound 0.01581 µM): 0.802
- relative viability ([3]; first compound 0.05 µM): 0.452
- relative viability ([3]; first compound 0.1581 µM): 0.666
- relative viability ([3]; first compound 0.5 µM): 0.675
- relative viability (CUDC-101 + Pictilisib; first compound 0.01 µM): 0.684
- relative viability (CUDC-101 + Pictilisib; first compound 0.03162 µM): 0.475
- relative viability (CUDC-101 + Pictilisib; first compound 0.1 µM): 0.293
- relative viability (CUDC-101 + Pictilisib; first compound 0.3162 µM): 0.215
- relative viability (CUDC-101 + Pictilisib; first compound 1 µM): 0.157
